Experimental data reported in patent publication US7416741B2, “Copper lowering treatment of inflammatory and fibrotic diseases” (The Regents of the University of Michigan, priority 2002, dated 2008).

Legend:
[1] = system: bleomycin mouse model of pulmonary fibrosis; experiment: Lung hydroxyproline assay in the bleomycin mouse model of pulmonary fibrosis; format: in vivo; conditions: for Hydroxyproline: sacrifice day 21
From the text: In the bleomycin mouse model, which is known to be dependent upon the TGFβ pathway, the intratracheal administration of bleomycin leads to the development of severe lung inflammation followed by fibrosis in 2-3 weeks, at which time the mice are sacrificed. Fibrosis is quantified in lung tissue by measuring hydroxyproline, a key component of the collagen that is deposited in fibrotic lung.
Mice. Female CBA/J mice at 8-10 weeks of age were from the Jackson Laboratories (Bar Harbor, Me.). These mice weighed an average of 21.4 g at the start of experiments, with a standard deviation of 1.7 g.
Bleomycin treatment. This was undertaken on day 0 by endotracheal instillation through the oral cavity after exposure of the airway by pulling the tongue. Each mouse received 0.001 units of bleomycin (Bristol-Myers, Evansville, Ind.)/gm body weight in 30 μl of sterile saline, while control mice received an equal volume of sterile saline only.
TM treatment experiments. TM was given in 0.25 ml of water by intragastric gavage once daily, in the doses and times indicated in the various studies as described below.
Hydroxyproline assay. The extent of fibrosis was assessed by assaying hydroxyproline content of whole lung homogenates at the time of sacrifice as previously described (M Gharaee-Kermani et al., J. Leukoc. Biol., 64:657-666 [1998]). Results are expressed as μg hydroxyproline/lung (the lung tissue included both lungs).
Hydroxyproline assay. The extent of fibrosis was assessed by assaying hydroxyproline content of whole-lung homogenates at the time of sacrifice as described in Gharaee-Kermani, et al., J. Leukoc. Biol., 64:657-666 (1998). Hydroxyproline was expressed as micrograms of hydroxyproline per mouse lung (the lung tissue included both lungs).

[2] = system: bleomycin mouse model of pulmonary fibrosis; experiment: Microscopic evaluation of the lungs (H&E, Masson-trichrome); format: in vivo
From the text: Microscopic evaluation of the lungs. For morphological evaluation of fibrosis, lungs were inflated with formalin at the time of sacrifice, and after overnight fixation were embedded in paraffin and sections prepared for H&E staining as well as for Masson-trichrome staining for evaluation of collagen deposition as previously described (M Gharaee-Kermani et al., J. Leukoc. Biol., 64:657-666 [1998]).

Con A mouse model = experiment: Serum ALT in the Con A mouse model of liver damage; format: in vivo; conditions: for Serum ALT / Serum ALT, Mean: Ex 5 Exp 1; for Serum ALT: one mouse; for Serum ALT, Mean: after 4th injection
Experimental: A study was carried out in a mouse model of concanavilin A (Con A) production of liver cirrhosis. There were four experimental groups of several mice each. […] The Con A was injected intravenously once weekly into mice (0.3 mg/mouse/week), and produced a hepatitis, which is manifested by an increasing level of alanine transaminase (ALT) enzymes in the blood. The TM was given once daily by […] in a dose of 0.7 mg/mouse/day beginning 7 days prior to ConA treatment. During days 9 to 11 after Con A, the TM-treated mice received 1.2 mg of TM daily, to ensure adequate lowering of copper levels, and then received 0.7 mg daily for the duration of the study. A blood sample was obtained 28 days after ConA treatment, and the mice were sacrificed on the same day. Serum alanine transaminase (ALT) was measured in Sigma-Frankel (SF) units, where one unit is the formation of 0.000482 umoles of glutamate/minute at pH 7.5 and 25 ° C.
This example describes additional TM treatment experiments in the model Concanavalin (Con A) mouse model of liver damage. As described previously, in the Con A mouse model, intravenously administered Con A produces an inflammatory reaction and cell damage in the animal's liver that is marked by the release hepatic transaminase enzymes, such as […] (ALT), into the blood. Several different experiments are reported in this example
Twenty-four hours after each of the first three injections, one mouse from each group was bled, and serum ALT measured. In this experiment, TM was started in the TM treated mice before the first Con A injection. After the fourth injection of Con A, all the mice were bled for ALT and Cp measurements and the experiment terminated. The Cp levels in TM treated mice were 25-50% of non-TM treated animals.
In a second experiment, Con A was given in weekly injections for four weeks, prior to any treatment with TM. The objective was to see if TM treatment would be useful after considerable organ damage had been allowed to occur. Then, one group of Con A treated animals were initiated on TM therapy.

[3] = system: animal model of renal fibrosis; experiment: Streptozotocin rat model of renal fibrosis; format: in vivo; conditions: Ex 7
Experimental: A study is carried out in an animal model of renal fibrosis. After kidney injury of almost any type, a diffuse interstitial fibrosis (believed to be due to over-activity of the TGFβ pathway) produces kidney failure. Rats are made diabetic by administering streptozotocin; renal fibrosis is typically well developed by 60 days after initiation of streptozotocin administration. TM therapy is initiated at varying times relative to streptozotocin administration in several groups of rats, and the results compared to control groups not receiving TM. Typically, at least three […] are present in each experimental group. In one group, TM therapy is initiated prior to streptozotocin administration, to determine whether TM therapy mitigates the pancreatic damage, as it mitigates hepatitis/cirrhosis in the concanavilin A mouse model described above. In other groups, TM is started after streptozotocin administration, at various times, to determine if it can mitigate the renal fibrosis that develops after streptozotocin administration.

sheep = conditions: cited from earlier work
[4] = sheep; intravenous 99Mo labeled TM; cited from earlier work

Question: For `[SH-].[SH-].[S]=[Mo]=[S]` [TM, tetrathiomolybdate], which Hydroxyproline ([1]; Ex 1 Exp 1, Bleomycin/TM group) is on record?
Answer: Its Hydroxyproline is 162 ± 12 μg/lung.

Question: And the “fibrosis as measured by hydroxyproline assay” value ([1]; Ex 1 Exp 1, TM before bleomycin)?
Answer: The value was “almost completely abrogated fibrosis”.

Question: What about the Hydroxyproline ([1]; Ex 1 Exp 1, TM only group) of the same compound?
Answer: Its Hydroxyproline is 193 ± 5 μg/lung.

Question: What about the “Hydroxyproline (Mean ± SE)” value ([1]; Ex 1 Exp 2, Bleomycin Group, 0.3 mg TM/mouse/day, day 21) of the same compound?
Answer: Its value is 232 ± 4 μg hydroxyproline/lung.

Question: And the “Hydroxyproline (Mean ± SE)” value ([1]; Ex 1 Exp 2, Bleomycin Group, 0.5 mg TM/mouse/day, day 21)?
Answer: The value was 197 ± 15 μg hydroxyproline/lung.

Question: What about the “Hydroxyproline (Mean ± SE)” value ([1]; Ex 1 Exp 2, Bleomycin Group, 0.7 mg TM/mouse/day, day 21) of the same compound?
Answer: Its value is 172 ± 22 μg hydroxyproline/lung.

Question: And the “Hydroxyproline (Mean ± SE)” value ([1]; Ex 1 Exp 2, Bleomycin Group, 0.9 mg TM/mouse/day, day 21)?
Answer: Its value is 157 ± 14 μg hydroxyproline/lung.

Question: What about the “Hydroxyproline (Mean ± SE)” value ([1]; Ex 1 Exp 2, Control Group (Saline only), 0.3 mg TM/mouse/day) of the same compound?
Answer: Its value is 132 ± 3 μg hydroxyproline/lung.

Question: And the “Hydroxyproline (Mean ± SE)” value ([1]; Ex 1 Exp 2, Control Group (Saline only), 0.5 mg TM/mouse/day)?
Answer: The value was 130 ± 5 μg hydroxyproline/lung.

Question: What about the “Hydroxyproline (Mean ± SE)” value ([1]; Ex 1 Exp 2, Control Group (Saline only), 0.7 mg TM/mouse/day) of the same compound?
Answer: The value was 152 ± 10 μg hydroxyproline/lung.

Question: And the “Hydroxyproline (Mean ± SE)” value ([1]; Ex 1 Exp 2, Control Group (Saline only), 0.9 mg TM/mouse/day)?
Answer: The value was 130 ± 8 μg hydroxyproline/lung.

Question: And the “protection against bleomycin-induced fibrosis as measured by hydroxyproline accumulation” value ([1]; Ex 1 Exp 2, TM 0.3 to 0.9 mg)?
Answer: The value was “dose dependent”.

Question: And the “effect of TM treatment alone on hydroxyproline levels” value ([1]; Ex 1 Exp 2, no bleomycin)?
Answer: The value was “no effect of TM treatment alone on hydroxyproline levels”.

Question: What about the hydroxyproline production ([1]; Ex 1 Exp 3, TM given before bleomycin or started at day 4 or 7 after, 1.2 then 0.9 mg/mouse/day) of the same compound?
Answer: The hydroxyproline production was “significant suppression of hydroxyproline production”.

Question: And the “effect of TM alone on hydroxyproline levels” value ([1]; Ex 1 Exp 3, no bleomycin)?
Answer: Its value is “no effect of TM alone on hydroxyproline levels”.

Question: What about the “lung hydroxyproline levels, bleomycin-induced increase” value ([1]; Ex 2 Exp 2, TM from day 5, day 21) of the same compound?
Answer: Its value is “completely and significantly inhibited the increase”.

Question: And the “collagen deposition (Masson-trichrome)” value ([2]; Ex 1 Exp 1, TM treated group vs bleomycin only)?
Answer: The value was “much less collagen deposition”.

Question: What about the “lung histopathology (H&E): patches of fibrosis and inflammatory cells” value ([2]; Ex 1 Exp 1, TM-treated bleomycin animals vs bleomycin alone) of the same compound?
Answer: Its value is “substantially smaller with lesser degrees of cellular infiltration”.

Question: What about the “histopathological evaluation of fibrotic lesions” value ([2]; Ex 1 Exp 2, increasing TM dose) of the same compound?
Answer: The value was “diminution of fibrotic lesion size with increasing dose of TM”.

Question: What about the “ConA induced increase of serum alanine transaminase (ALT)” value (Con A mouse model; Ex 4, TM 0.7 mg/mouse/day from 7 days before ConA, 28 days) of the same compound?
Answer: The value was “almost completely inhibits”.

Question: And the “Serum ALT” value (Con A mouse model; Con A + TM, 24 h after 1st Con A injection)?
Answer: Its value is 52 Sigma-Frankel units.

Question: And the “Serum ALT” value (Con A mouse model; Con A + TM, after 2nd injection)?
Answer: The value was 50 Sigma-Frankel units.

Question: What about the “Serum ALT” value (Con A mouse model; Con A + TM, after 3rd injection) of the same compound?
Answer: The value was 63 Sigma-Frankel units.

Question: And the “Serum ALT, Mean” value (Con A mouse model; Con A + TM, n 4)?
Answer: Its value is 74^2,3 Sigma-Frankel units.

Question: What about the “Serum ALT” value (Con A mouse model; TM only control, 24 h after 1st injection) of the same compound?
Answer: Its value is 85 Sigma-Frankel units.

Question: And the “Serum ALT” value (Con A mouse model; TM only control, after 2nd injection)?
Answer: Its value is 39 Sigma-Frankel units.

Question: What about the “Serum ALT” value (Con A mouse model; TM only control, after 3rd injection) of the same compound?
Answer: Its value is 49 Sigma-Frankel units.

Question: And the “Serum ALT, Mean” value (Con A mouse model; TM only control, n 3)?
Answer: The value was 38 Sigma-Frankel units.

Question: And the ALT values (Con A mouse model; Ex 5 Exp 2, TM started after four weeks of weekly Con A, Con A continued)?
Answer: The ALT values was “returned to normal”.

Question: And the renal fibrosis ([3]; TM after diabetes is induced)?
Answer: Its renal fibrosis is “mitigates the renal fibrosis”.

Question: And the pancreatic damage ([3]; TM before streptozotocin)?
Answer: The pancreatic damage was “mitigates pancreatic damage”.

Question: What about the “tolerability of intravenous TM” value (sheep; copper loaded sheep, 50 or 100 mg 2×weekly for up to 11 weeks) of the same compound?
Answer: The value was “tolerated up to 22 injections of TM without clinical problems”.

Question: And the adverse side effects (sheep; prophylactic use in commercial sheep flocks, over 400 animals)?
Answer: Its adverse side effects is “no adverse side effects”.

Question: What about the excreted in feces [4] of the same compound?
Answer: The excreted in feces was 5%.

Question: And the excreted in urine [4]?
Answer: Its excreted in urine is “over 90%”.

Question: And the “half-time of slow disappearance from plasma” value [4]?
Answer: The value was “about 40 h”.
